From ChEMBL document CHEMBL3600310 (J Med Chem, 2015)

Key:
Type in all cases: functional, cell-based
A549 = experiment: Cytotoxicity against human A549 cells after 72 hrs by MTT assay; details: A549, 72 h
HCT-116 = experiment: Cytotoxicity against human HCT116 cells after 72 hrs by MTT assay; details: HCT-116, 72 h
MDA-MB-435 = experiment: Cytotoxicity against human MDA-MB-435 cells after 72 hrs by MTT assay; details: MDA-MB-435, 72 h

| SMILES | IC50 (A549) [µM] | IC50 (HCT-116) [µM] | IC50 (MDA-MB-435) [µM] |
| --- | --- | --- | --- |
| O=C1c2ccccc2OC2c3[nH]c4ccc(Cl)cc4c3CCN12 (stereo not drawn) | 3.49 | 2.1 | 5.59 |
| S=C1c2ccccc2OC2c3[nH]c4ccccc4c3CCN12 (stereo not drawn) | 7.7 | 5.6 | 4.8 |
| O=C1c2cc(I)cc(I)c2OC2c3[nH]c4ccccc4c3CCN12 (stereo not drawn) | > 200 | 24.4 | > 200 |
| COc1ccc2[nH]c3c(c2c1)CCN1C(=O)c2ccc4ccccc4c2OC31 (stereo not drawn) | > 200 | > 200 | > 200 |
| COc1ccc2c(c1)OC1c3[nH]c4ccc(OC)cc4c3CCN1C2=O (stereo not drawn) | > 200 | > 200 | > 200 |
| O=C1c2cc(Cl)cc(Cl)c2OC2c3[nH]c4ccccc4c3CCN12 (stereo not drawn) | 1.8 | 6.7 | 14.2 |
| Cc1ccc2c(c1)OC1c3[nH]c4ccccc4c3CCN1C2=S (stereo not drawn) | 65.2 | 44.4 | 60.3 |
| O=C1c2c(F)cccc2OC2c3[nH]c4ccccc4c3CCN12 (stereo not drawn) | 35.1 | 31 | 71 |
| CN1c2ccsc2C(=O)N2CCc3c([nH]c4ccc(O)cc34)C21 (stereo not drawn) | 15.8 | 23.6 | > 200 |
| O=C1c2cc(Cl)ccc2OC2c3[nH]c4ccccc4c3CCN12 (stereo not drawn) | 0.05 | 1.4 | 0.6 |
| COc1cccc2c1OC1c3[nH]c4ccccc4c3CCN1C2=O (stereo not drawn) | 26.8 | 2.21 | 16.9 |
| COc1ccc2[nH]c3c(c2c1)CCN1C(=O)c2cc4ccccc4cc2OC31 (stereo not drawn) | > 200 | 58 | 34.8 |
| COc1ccc2[nH]c3c(c2c1)CCN1C(=O)c2ccccc2OC31 (stereo not drawn) | > 200 | > 200 | > 200 |
| COc1ccc2c(c1)C(=O)N1CCc3c([nH]c4ccc(OC)cc34)C1O2 (stereo not drawn) | 9.5 | 23.7 | 10.1 |
| O=C1c2cc(O)ccc2OC2c3[nH]c4ccccc4c3CCN12 (stereo not drawn) | 16.2 | 1.9 | 11.5 |
| CC(=O)Nc1ccc2c(c1)C(=O)N1CCc3c([nH]c4ccccc34)C1O2 (stereo not drawn) | 20.1 | 5.8 | 19.6 |
| Cc1cccc2c1C(=O)N1CCc3c([nH]c4ccccc34)C1O2 (stereo not drawn) | > 200 | 38.1 | > 200 |
| O=C1c2cccc(O)c2OC2c3[nH]c4ccc(O)cc4c3CCN12 (stereo not drawn) | > 200 | 53.4 | 66.2 |
| O=C1c2ccccc2OC2c3[nH]c4ccccc4c3CCN12 (stereo not drawn) | 2.4 | 3.1 | 3 |
| CN1c2ccccc2C(=O)N2CCCc3c([nH]c4ccc(O)cc34)C21 (stereo not drawn) | 32.4 | 59.8 | 69.2 |
| COc1ccc2[nH]c3c(c2c1)CCCN1C(=O)c2ccccc2N(C)C31 (stereo not drawn) | > 200 | > 200 | > 200 |
| O=C1c2ccc(C(F)(F)F)cc2OC2c3[nH]c4ccc(O)cc4c3CCN12 (stereo not drawn) | 14.7 | 10.9 | 10.5 |
| CC(C)C(=O)Nc1ccc2c(c1)C(=O)N1CCc3c([nH]c4ccccc34)C1O2 (stereo not drawn) | 28.4 | 9.4 | 11.7 |
| COc1ccc2c(c1)C(=O)N1CCc3c([nH]c4ccccc34)C1O2 (stereo not drawn) | 14.8 | 25.6 | > 200 |

| SMILES | IC50 (A549) [µM] | IC50 (HCT-116) [µM] | IC50 (MDA-MB-435) [µM] |
| --- | --- | --- | --- |
| COc1ccc2[nH]c3c(c2c1)CCN1C(=O)c2cccc(OC)c2OC31 (stereo not drawn) | > 200 | 52.7 | 80.1 |
| Cc1cccc2c1C(=O)N1CCc3c([nH]c4ccc(O)cc34)C1O2 (stereo not drawn) | 1.8 | < 0.003 | < 0.003 |
| COc1ccc2[nH]c3c(c2c1)CCN1C(=O)c2cc(Cl)ccc2OC31 (stereo not drawn) | 0.05 | 1 | 2.4 |
| COc1ccc2[nH]c3c(c2c1)CCN1C(=O)c2ccc(F)cc2OC31 (stereo not drawn) | > 200 | 37.1 | 157 |
| CN1c2ccsc2C(=O)N2CCc3c([nH]c4ccccc34)C21 (stereo not drawn) | 111 | 192 | > 200 |
| COc1ccc2[nH]c3c(c2c1)CCN1C(=O)c2cc([N+](=O)[O-])ccc2OC31 (stereo not drawn) | > 200 | > 200 | > 200 |
| COc1ccc2[nH]c3c(c2c1)CCN1C(=O)c2ccc(Cl)cc2OC31 (stereo not drawn) | 3.8 | 8.7 | 4.6 |
| O=C1c2ccc(Cl)cc2OC2c3[nH]c4ccccc4c3CCN12 (stereo not drawn) | 58.6 | 40.6 | 34.2 |
| Cc1cccc2c1C(=S)N1CCc3c([nH]c4ccccc34)C1O2 (stereo not drawn) | 11 | 3.8 | 4.5 |
| CN1c2ccn(C)c2C(=O)N2CCc3c([nH]c4ccc(O)cc34)C21 (stereo not drawn) | 5 | 15.4 | 11.7 |
| COc1ccc2[nH]c3c(c2c1)CCN1C(=O)c2c(ccn2C)N(C)C31 (stereo not drawn) | 28.5 | 54.1 | 42 |
| CN1c2ccccc2C(=O)N2CCc3c([nH]c4ccccc34)[C@@H]21 [EVODIAMINE] | > 200 | > 200 | 22.1 |
| O=C1c2cc([N+](=O)[O-])ccc2OC2c3[nH]c4ccccc4c3CCN12 (stereo not drawn) | > 200 | > 200 | > 200 |
| O=C1c2ccc(Cl)cc2OC2c3[nH]c4ccc(O)cc4c3CCN12 (stereo not drawn) | 10.6 | 18.7 | 7.1 |
| COc1ccc2[nH]c3c(c2c1)CCN1C(=O)c2ccc(C)cc2OC31 (stereo not drawn) | > 200 | > 200 | 198 |
| CN1c2ccoc2C(=O)N2CCc3c([nH]c4ccccc34)C21 (stereo not drawn) | > 200 | 178 | 182 |
| O=C1c2ccc(C(F)(F)F)cc2OC2c3[nH]c4ccccc4c3CCN12 (stereo not drawn) | 25.8 | 23.3 | 21.9 |
| CCCN(CCC)c1ccc2c(c1)C(=O)N1CCc3c([nH]c4ccccc34)C1O2 (stereo not drawn) | > 200 | 2.3 | > 200 |
| O=C1c2ccc(O)cc2OC2c3[nH]c4ccccc4c3CCN12 (stereo not drawn) | 17.5 | 54.1 | 29.3 |
| COc1ccc2oc3c(c2c1)CCCN1C(=O)c2ccccc2N(C)C31 (stereo not drawn) | 6.2 | 5.3 | 28.4 |
| CN1c2ccccc2C(=O)N2CCCc3c(oc4ccc(O)cc34)C21 (stereo not drawn) | > 200 | > 200 | > 200 |
| COc1ccc2[nH]c3c(c2c1)CCN1C(=O)c2ccccc2C31O (stereo not drawn) | > 200 | > 200 | > 200 |
| COc1ccc2[nH]c3c(c2c1)CCN1C(=O)c2ccccc2[C@H]31 | 193 | 30.9 | > 200 |
| CN1c2ccn(C)c2C(=O)N2CCc3c([nH]c4ccccc34)C21 (stereo not drawn) | > 200 | 76.5 | 207 |

| SMILES | IC50 (A549) [µM] | IC50 (HCT-116) [µM] | IC50 (MDA-MB-435) [µM] |
| --- | --- | --- | --- |
| O=C1c2cc(F)ccc2OC2c3[nH]c4ccccc4c3CCN12 (stereo not drawn) | 6.6 | 5.8 | 46.1 |
| COc1ccc2[nH]c3c(c2c1)CCN1C(=O)c2cc(F)ccc2OC31 (stereo not drawn) | 13.1 | 25.1 | 36.4 |
| O=C1c2ccc(F)cc2OC2c3[nH]c4ccccc4c3CCN12 (stereo not drawn) | 95 | 6.7 | 171 |
| COc1ccc2[nH]c3c(c2c1)CCN1C(=O)c2sccc2N(C)C31 (stereo not drawn) | > 200 | > 200 | > 200 |
| CCc1c2c(nc3ccc(OC(=O)N4CCC(N5CCCCC5)CC4)cc13)-c1cc3c(c(=O)n1C2)COC(=O)[C@]3(O)CC [IRINOTECAN] | 20.1 | 18.6 | 6.3 |
| Nc1ccc2c(c1)C(=O)N1CCc3c([nH]c4ccccc34)C1O2 (stereo not drawn) | 2.7 | 2.3 | 9.1 |
| O=C1c2cccc(O)c2OC2c3[nH]c4ccccc4c3CCN12 (stereo not drawn) | 103 | > 200 | 42.3 |
| O=C1c2c(ccc3ccccc23)OC2c3[nH]c4ccc(O)cc4c3CCN12 (stereo not drawn) | 3.1 | 6.3 | 2.7 |
| O=C1c2cc(Br)ccc2OC2c3[nH]c4ccc(O)cc4c3CCN12 (stereo not drawn) | 0.06 | < 0.003 | < 0.003 |
| COc1ccc2[nH]c3c(c2c1)CCN1C(=O)c2ccc(C(F)(F)F)cc2OC31 (stereo not drawn) | 50.5 | 31.7 | 26.2 |
| COc1ccc2[nH]c3c(c2c1)CCN1C(=O)c2cc(N)ccc2OC31 (stereo not drawn) | 114 | 42.8 | 132 |
| COc1ccc2[nH]c3c(c2c1)CCN1C(=O)c2cscc2N(C)C31 (stereo not drawn) | 32.3 | 94.9 | 49 |
| Cc1ccc2c(c1)OC1c3[nH]c4ccccc4c3CCN1C2=O (stereo not drawn) | 62.5 | 25.5 | 97.2 |
| CCCNc1ccc2c(c1)C(=O)N1CCc3c([nH]c4ccccc34)C1O2 (stereo not drawn) | 173 | 16.7 | > 200 |
| COc1ccc2[nH]c3c(c2c1)CCN1C(=O)c2ccsc2N(C)C31 (stereo not drawn) | 26.9 | 14.1 | 36.2 |
| COc1ccc2[nH]c3c(c2c1)CCN1C(=O)c2cc(Br)ccc2OC31 (stereo not drawn) | 2.6 | 5.4 | 7.1 |
| COc1ccc2[nH]c3c(c2c1)CCN1C(=O)c2c(ccc4ccccc24)OC31 (stereo not drawn) | > 200 | > 200 | 31 |
| O=C1c2cc3ccccc3cc2OC2c3[nH]c4ccc(O)cc4c3CCN12 (stereo not drawn) | 5.6 | 5.1 | 5.1 |
| COc1ccc2c(c1)OC1c3[nH]c4ccccc4c3CCN1C2=O (stereo not drawn) | 174 | 71.2 | 52.3 |
| O=C1c2cc(Cl)cc(Cl)c2OC2c3[nH]c4ccc(O)cc4c3CCN12 (stereo not drawn) | 8.6 | 7 | 0.3 |
| CN1c2cscc2C(=O)N2CCc3c([nH]c4ccc(O)cc34)C21 (stereo not drawn) | 3.9 | 4.8 | 32.3 |
| CCNc1ccc2c(c1)C(=O)N1CCc3c([nH]c4ccccc34)C1O2 (stereo not drawn) | > 200 | 39.4 | > 200 |
| O=C1c2cc(Br)ccc2OC2c3[nH]c4ccccc4c3CCN12 (stereo not drawn) | 1.6 | 13.8 | 3.7 |
